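Growth conditions: 96-well plates. Treatment: test compound, 48 hours, 5 concentrations. Analysis: linear interpolation between bracketing concentrations; unreached endpoints set to highest concentration. TGI marks complete inhibition of growth.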
Tests used:
Assay in all cases: NCI tumour cell line growth inhibition, 48 h
[1] = tested on: 786-0 renal
[2] = tested on: A549 NSCLC
[3] = tested on: CAKI-1 renal
[4] = tested on: CCRF-CEM leukemia
[5] = tested on: COLO 205 colon
[6] = tested on: DLD-1 colon
[7] = tested on: DMS 114 small cell lung
[8] = tested on: DMS 273 small cell lung
[9] = tested on: EKVX NSCLC
[10] = tested on: HCC-2998 colon
[11] = tested on: HCT-116 colon
[12] = tested on: HCT-15 colon
[13] = tested on: HOP-62 NSCLC
[14] = tested on: HOP-92 NSCLC
[15] = tested on: HT29 colon
[16] = tested on: IGROV1 ovarian
[17] = tested on: K-562 leukemia
[18] = tested on: KM12 colon
[19] = tested on: LOX IMVI melanoma
[20] = tested on: LXFL 529 NSCLC
[21] = tested on: M14 melanoma
[22] = tested on: M19-MEL melanoma
[23] = tested on: MALME-3M melanoma
[24] = tested on: MOLT-4 leukemia
[25] = tested on: NCI-H226 lung
[26] = tested on: NCI-H23 lung
[27] = tested on: NCI-H460 lung
[28] = tested on: NCI-H522 lung
[29] = tested on: OVCAR-3 ovarian
[30] = tested on: OVCAR-5 ovarian
[31] = tested on: OVCAR-8 ovarian
[32] = tested on: RXF 393 renal
[33] = tested on: SF-268 CNS
[34] = tested on: SF-295 CNS
[35] = tested on: SF-539 CNS
[36] = tested on: SK-MEL-2 melanoma
[37] = tested on: SK-MEL-28 melanoma
[38] = tested on: SK-MEL-5 melanoma
[39] = tested on: SK-OV-3 ovarian
[40] = tested on: SN12C renal
[41] = tested on: SNB-19 CNS
[42] = tested on: SNB-75 CNS
[43] = tested on: SNB-78 CNS
[44] = tested on: SR leukemia
[45] = tested on: SW-620 colon
[46] = tested on: TK-10 renal
[47] = tested on: U251 CNS
[48] = tested on: UACC-62 melanoma
[49] = tested on: UO-31 renal
[50] = tested on: XF 498 CNS
[51] = tested on: A498 renal
[52] = tested on: ACHN renal
[53] = tested on: HL-60(TB) leukemia
[54] = tested on: KM20L2 colon
[55] = tested on: OVCAR-4 ovarian
[56] = tested on: RPMI-8226 leukemia
[57] = tested on: UACC-257 melanoma
[58] = tested on: BT-549 breast
[59] = tested on: DU-145 prostate
[60] = tested on: HS 578T breast
[61] = tested on: MCF7 breast
[62] = tested on: MDA-MB-231 breast
[63] = tested on: MDA-MB-435
[64] = tested on: MDA-N
[65] = tested on: NCI/ADR-RES ovarian
[66] = tested on: PC-3 prostate
[67] = tested on: T-47D breast

Structure (SMILES): C=CNC(=O)NC(=O)CSc1nnc(-c2ccccc2NC(=O)C(F)(F)F)c(=O)[nH]1
- TGI [1]: > 100 µM
- TGI [2]: > 100 µM
- TGI [3]: > 100 µM
- TGI [4]: > 100 µM
- TGI [5]: > 100 µM
- TGI [6]: 22.7 µM
- TGI [7]: 43.1 µM
- TGI [8]: > 100 µM
- TGI [9]: > 100 µM
- TGI [10]: > 100 µM
- TGI [11]: > 100 µM
- TGI [12]: > 100 µM
- TGI [13]: > 100 µM
- TGI [14]: 86.6 µM
- TGI [15]: > 100 µM
- TGI [16]: > 100 µM
- TGI [17]: > 100 µM
- TGI [18]: > 100 µM
- TGI [19]: > 100 µM
- TGI [20]: > 100 µM
- TGI [21]: > 100 µM
- TGI [22]: > 100 µM
- TGI [23]: 28.8 µM
- TGI [24]: > 100 µM
- TGI [25]: > 100 µM
- TGI [26]: > 100 µM
- TGI [27]: > 100 µM
- TGI [28]: > 100 µM
- TGI [29]: > 100 µM
- TGI [30]: > 100 µM
- TGI [31]: > 100 µM
- TGI [32]: > 100 µM
- TGI [33]: > 100 µM
- TGI [34]: > 100 µM
- TGI [35]: > 100 µM
- TGI [36]: > 100 µM
- TGI [37]: > 100 µM
- TGI [38]: 2.06 µM
- TGI [39]: > 100 µM
- TGI [40]: > 100 µM
- TGI [41]: > 100 µM
- TGI [42]: 0.968 µM
- TGI [43]: > 100 µM
- TGI [44]: > 100 µM
- TGI [45]: > 100 µM
- TGI [46]: > 100 µM
- TGI [47]: > 100 µM
- TGI [48]: > 100 µM
- TGI [49]: > 100 µM
- TGI [50]: > 100 µM

Structure (SMILES): Cc1ccc(NC(=O)CC2C(=O)Nc3ccccc3S2(=O)=O)c(C)c1 (stereo unspecified)
- TGI [1]: 40.3 µM
- TGI [51]: 31.2 µM
- TGI [2]: 36.8 µM
- TGI [52]: 39.1 µM
- TGI [3]: 35.9 µM
- TGI [4]: 43.2 µM
- TGI [6]: 43.1 µM
- TGI [7]: 39.2 µM
- TGI [8]: 25.8 µM
- TGI [9]: > 100 µM
- TGI [10]: 30.5 µM
- TGI [11]: 24.9 µM
- TGI [12]: 30.3 µM
- TGI [53]: 14 µM
- TGI [14]: 31 µM
- TGI [15]: 27.2 µM
- TGI [16]: 28.8 µM
- TGI [17]: 29 µM
- TGI [54]: 26.9 µM
- TGI [19]: 29 µM
- TGI [20]: 41 µM
- TGI [21]: 26.2 µM
- TGI [23]: 45.9 µM
- TGI [24]: 28.7 µM
- TGI [25]: 35.9 µM
- TGI [26]: 37.2 µM
- TGI [27]: 33.8 µM
- TGI [28]: 23.6 µM
- TGI [29]: 30.1 µM
- TGI [55]: 41.2 µM
- TGI [30]: 46.9 µM
- TGI [31]: 34.6 µM
- TGI [56]: 43.4 µM
- TGI [32]: 41 µM
- TGI [33]: 39.6 µM
- TGI [34]: 50.2 µM
- TGI [35]: 30.8 µM
- TGI [36]: 73.8 µM
- TGI [37]: 41.1 µM
- TGI [38]: 19.5 µM
- TGI [40]: 39.3 µM
- TGI [41]: 32.6 µM
- TGI [42]: 38.6 µM
- TGI [43]: 56 µM
- TGI [44]: 19.1 µM
- TGI [45]: 19.5 µM
- TGI [46]: 55 µM
- TGI [47]: 25.8 µM
- TGI [57]: 55 µM
- TGI [48]: 50.5 µM
- TGI [49]: 39.8 µM
- TGI [50]: 34.8 µM

Structure (SMILES): Cc1cc(C)nc(NS(=O)(=O)c2ccc(NC(=O)c3cccc4c(Nc5ccc(S(=O)(=O)Nc6cc(C)on6)cc5)c5ccccc5nc34)cc2)n1
- TGI [51]: 68.5 µM
- TGI [52]: > 100 µM
- TGI [4]: 75.7 µM
- TGI [6]: > 100 µM
- TGI [7]: 39.8 µM
- TGI [9]: 75.6 µM
- TGI [10]: 29.4 µM
- TGI [11]: 84 µM
- TGI [53]: 68.4 µM
- TGI [13]: 45.4 µM
- TGI [15]: 46.7 µM
- TGI [17]: 80.6 µM
- TGI [18]: 30.4 µM
- TGI [19]: 35.6 µM
- TGI [20]: 35.5 µM
- TGI [21]: 47.5 µM
- TGI [22]: 62.4 µM
- TGI [23]: 44.7 µM
- TGI [24]: 86.4 µM
- TGI [26]: 42.6 µM
- TGI [27]: 59.9 µM
- TGI [28]: 32.5 µM
- TGI [29]: 38.9 µM
- TGI [55]: 50.2 µM
- TGI [30]: 34 µM
- TGI [32]: 39.6 µM
- TGI [33]: 65.2 µM
- TGI [35]: 35.7 µM
- TGI [36]: 40 µM
- TGI [37]: 50 µM
- TGI [39]: 75.2 µM
- TGI [40]: 61.8 µM
- TGI [41]: 46.7 µM
- TGI [42]: 48.9 µM
- TGI [43]: > 100 µM
- TGI [44]: 80.3 µM
- TGI [46]: > 100 µM
- TGI [47]: 40.2 µM
- TGI [57]: 47.2 µM
- TGI [48]: 40.9 µM
- TGI [49]: > 100 µM
- TGI [50]: 47.6 µM

Structure (SMILES): CC12C=CC(=O)C=C1CCC1C3CCC(O)(C(=O)CO)C3(C)CC(O)C12F (stereo unspecified)
- TGI [1]: > 100 µM
- TGI [51]: > 100 µM
- TGI [2]: > 100 µM
- TGI [52]: > 100 µM
- TGI [58]: > 100 µM
- TGI [3]: > 100 µM
- TGI [4]: > 100 µM
- TGI [5]: > 100 µM
- TGI [6]: > 100 µM
- TGI [7]: > 100 µM
- TGI [8]: > 100 µM
- TGI [59]: > 100 µM
- TGI [9]: > 100 µM
- TGI [10]: > 100 µM
- TGI [11]: > 100 µM
- TGI [12]: > 100 µM
- TGI [53]: > 100 µM
- TGI [13]: > 100 µM
- TGI [14]: > 100 µM
- TGI [60]: > 100 µM
- TGI [15]: > 100 µM
- TGI [16]: > 100 µM
- TGI [17]: > 100 µM
- TGI [18]: > 100 µM
- TGI [54]: > 100 µM
- TGI [19]: > 100 µM
- TGI [20]: > 100 µM
- TGI [21]: > 100 µM
- TGI [22]: > 100 µM
- TGI [23]: > 100 µM
- TGI [61]: > 100 µM
- TGI [62]: > 100 µM
- TGI [63]: > 100 µM
- TGI [64]: > 100 µM
- TGI [24]: > 100 µM
- TGI [25]: > 100 µM
- TGI [26]: > 100 µM
- TGI [27]: > 100 µM
- TGI [28]: > 100 µM
- TGI [65]: > 100 µM
- TGI [29]: > 100 µM
- TGI [55]: > 100 µM
- TGI [30]: > 100 µM
- TGI [31]: > 100 µM
- TGI [66]: > 100 µM
- TGI [56]: > 100 µM
- TGI [32]: > 100 µM
- TGI [33]: > 100 µM
- TGI [34]: > 100 µM
- TGI [35]: > 100 µM
- TGI [36]: > 100 µM
- TGI [37]: > 100 µM
- TGI [38]: > 100 µM
- TGI [39]: > 100 µM
- TGI [40]: > 100 µM
- TGI [41]: > 100 µM
- TGI [42]: > 100 µM
- TGI [43]: > 100 µM
- TGI [44]: > 100 µM
- TGI [45]: > 100 µM
- TGI [67]: > 100 µM
- TGI [46]: > 100 µM
- TGI [47]: > 100 µM
- TGI [57]: > 100 µM
- TGI [48]: > 100 µM
- TGI [49]: > 100 µM
- TGI [50]: > 100 µM

Reference: PubChem BioAssay (NCI)
